ChEMBL document CHEMBL3879898, “Substituted pyrazolyl compounds for the treatment of inflammationantiinflammatory agents; rheumatic diseases; anticancer agents” (2007)

Target: T1, Inhibitor of nuclear factor kappa-B kinase subunit beta (Homo sapiens, UniProt O14920)
T1 sequence (O14920 whole entry): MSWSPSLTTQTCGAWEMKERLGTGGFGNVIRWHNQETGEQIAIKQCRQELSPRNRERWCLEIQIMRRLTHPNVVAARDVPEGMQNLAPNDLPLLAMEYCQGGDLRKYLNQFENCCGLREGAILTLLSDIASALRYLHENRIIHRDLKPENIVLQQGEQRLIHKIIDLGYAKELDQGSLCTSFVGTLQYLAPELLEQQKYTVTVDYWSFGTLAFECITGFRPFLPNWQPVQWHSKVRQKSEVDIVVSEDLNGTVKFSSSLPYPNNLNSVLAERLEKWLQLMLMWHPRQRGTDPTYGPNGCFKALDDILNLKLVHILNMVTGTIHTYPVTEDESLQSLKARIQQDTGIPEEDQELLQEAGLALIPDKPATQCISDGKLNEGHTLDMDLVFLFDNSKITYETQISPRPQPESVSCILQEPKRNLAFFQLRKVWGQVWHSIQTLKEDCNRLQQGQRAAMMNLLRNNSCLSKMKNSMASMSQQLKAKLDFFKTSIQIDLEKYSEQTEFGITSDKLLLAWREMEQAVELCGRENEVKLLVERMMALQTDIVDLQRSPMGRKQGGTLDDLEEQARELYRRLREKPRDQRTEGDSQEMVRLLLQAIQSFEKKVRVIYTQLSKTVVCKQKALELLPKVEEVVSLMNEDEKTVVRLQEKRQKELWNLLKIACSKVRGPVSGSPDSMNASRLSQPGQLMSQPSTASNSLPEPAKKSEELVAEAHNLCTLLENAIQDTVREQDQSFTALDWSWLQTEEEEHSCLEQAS
Experiment: Inhibition of human recombinant C-terminal FLAG-epitope-tagged IKK2 expressed in baculovirus infected insect cells using biotinylated IkappaBalpha peptide as substrate in presence of [gamma-33P]-ATP after 30 mins by resin-based scintillation counting method

SMILES: CC(=O)N1Cc2c(C(N)=O)nn(-c3ccc(F)cc3)c2-c2cc(NC(=O)c3cccnc3Cl)ccc21
- IC50: < 1000 nM

SMILES: CC(=O)N1Cc2c(C(N)=O)nn(-c3ccc4c(c3)OCO4)c2-c2cc(NC(=O)c3cccnc3Cl)ccc21
- IC50: < 1000 nM

SMILES: NC(=O)c1nn(-c2ccc3c(c2)OCO3)c2c1COc1ccc(NC(=O)c3cccnc3Cl)cc1-2
- IC50: ≤ 1000 nM
